Source: patent US20090117205A1, “Quinolone-containing medicinal composition” (Daiichi Pharmaceutical CO., LTD, priority 2004, published 2009)
Converted amounts (≈) assume the structure as drawn. Read-outs that look alike come from different tables or passages of the source.

How the values were obtained:
Type in all cases: physicochemical
[1] = Evaluation of the concentration of the drug solution used for the lyophilization (cake formation)
[2] = Solubility of Compound (1) in water with change in pH
Procedure: Change in solubility with the change in pH of the drug solution of the Compound (1) was measured by the method commonly used in the art.

[3] = Stability test of the lyophilized product produced from drug solution of different pH
Description: Lyophilized products were produced from the drug solution of different pH according to the evaluation of pH of the drug solution used for the lyophilization (1) to evaluate the stability of the Compound (1).

[4] = lyophilized product from drug solution pH 2.5, 60° C., 1 W
[5] = lyophilized product from drug solution pH 2.5, 60° C., 2 W
[6] = lyophilized product from drug solution pH 2.5, Initial
[7] = lyophilized product from drug solution pH 3.5, 60° C., 1 W
[8] = lyophilized product from drug solution pH 3.5, 60° C., 2 W
[9] = lyophilized product from drug solution pH 3.5, Initial
[10] = lyophilized product from drug solution pH 4.5, 60° C., 1 W
[11] = lyophilized product from drug solution pH 4.5, 60° C., 2 W
[12] = lyophilized product from drug solution pH 4.5, Initial

With `COc1c(N2CC[C@@H](C3(N)CC3)C2)ccc2c(=O)c(C(=O)O)cn([C@@H]3C[C@@H]3F)c12` [Compound (1), 7-[3-(R)-(1-aminocyclopropyl)pyrrolidine-1-yl]-1-[2-(S)-fluoro-1-(R)-cyclopropyl]-1,4-dihydro-8-methoxy-4-oxoquinoline-3-carboxylic acid] the “Cake formation (number of vials with cake formation/number of vials tested)” value ([1]; drug solution 1.25 mg/mL) was 0/5, the “Cake formation (number of vials with cake formation/number of vials tested)” value ([1]; drug solution 2.5 mg/mL) was 4/5 and the “Cake formation (number of vials with cake formation/number of vials tested)” value ([1]; drug solution 5 mg/mL) was 4/5. The “Cake formation (number of vials with cake formation/number of vials tested)” value ([1]; drug solution 10 mg/mL) was 5/5, the “Cake formation (number of vials with cake formation/number of vials tested)” value ([1]; drug solution 15 mg/mL) was 5/5 and the “Cake formation (number of vials with cake formation/number of vials tested)” value ([1]; drug solution 20 mg/mL) was 5/5. It also gave a solubility at 1 week ([2]; aqueous buffer, 5° C., pH 3.5, after 1 W) of no more than 19.6 mg/mL, a solubility at 0 week ([2]; aqueous buffer, 5° C., pH 3.5, immediately after preparation) of no more than 20.1 mg/mL and a solubility at 1 week ([2]; aqueous buffer, 5° C., pH 4.0, after 1 W) of 19 mg/mL (≈ 47.3 mM). The solubility at 0 week ([2]; aqueous buffer, 5° C., pH 4.0, immediately after preparation) was no more than 20.1 mg/mL, the solubility at 1 week ([2]; aqueous buffer, 5° C., pH 4.5, after 1 W) was 18.8 mg/mL (≈ 46.8 mM) and the solubility at 0 week ([2]; aqueous buffer, 5° C., pH 4.5, immediately after preparation) was no more than 20 mg/mL. For the same compound, the solubility at 1 week ([2]; aqueous buffer, 5° C., pH 5.0, after 1 W) was 18.4 mg/mL (≈ 45.8 mM), the solubility at 1 week ([2]; aqueous buffer, 5° C., pH 5.5, after 1 W) was 5.4 mg/mL (≈ 13.5 mM) and the solubility at 1 week ([2]; aqueous buffer, 5° C., pH 6.0, after 1 W) was 0.7 mg/mL (≈ 1.74 mM). The solubility at 1 week ([2]; aqueous buffer, 25° C., pH 3.5, after 1 W) was no more than 20.1 mg/mL, the solubility at 0 week ([2]; aqueous buffer, 25° C., pH 3.5, immediately after preparation) was no more than 20.1 mg/mL and the solubility at 1 week ([2]; aqueous buffer, 25° C., pH 4.0, after 1 W) was 19.6 mg/mL (≈ 48.8 mM). It also gave a solubility at 0 week ([2]; aqueous buffer, 25° C., pH 4.0, immediately after preparation) of no more than 20.1 mg/mL, a solubility at 1 week ([2]; aqueous buffer, 25° C., pH 4.5, after 1 W) of 20.1 mg/mL (≈ 50.1 mM) and a solubility at 0 week ([2]; aqueous buffer, 25° C., pH 4.5, immediately after preparation) of no more than 20.1 mg/mL. It also gave a solubility at 1 week ([2]; aqueous buffer, 25° C., pH 5.0, after 1 W) of 18.7 mg/mL (≈ 46.6 mM), a solubility at 1 week ([2]; aqueous buffer, 25° C., pH 5.5, after 1 W) of 4.8 mg/mL (≈ 12 mM) and a solubility at 1 week ([2]; aqueous buffer, 25° C., pH 6.0, after 1 W) of 0.7 mg/mL (≈ 1.74 mM). For the same compound, the solubility ([2]; aqueous buffer, pH up to pH 5, read-out: Concentration that can be attained in the solution) was no less than 10 mg/mL, the solubility ([2]; pH 4.5, aqueous buffer, pH up to 4.5, read-out: Concentration that can be attained in the solution) was no less than 20 mg/mL and the “Stability of the Compound (1) in the lyophilized products” value ([3]; drug solution at a pH in the range of 2.5 to 4.5) was “sufficient stability”. For the same compound, the Appearance [3, 4] was “Yellow”, the “Content in relation to Initial amount (%)” value [3, 4] was 100.8% and the “Content in relation to Nominal amount (%)” value [3, 4] was 96.0%. For the same compound, the “Total amount of related substance (%)” value [3, 4] was 0.95%, the pH [3, 4] was 2.97 and the Appearance [3, 5] was “Yellow”. The “Content in relation to Initial amount (%)” value [3, 5] was 96.5%, the “Content in relation to Nominal amount (%)” value [3, 5] was 91.9% and the “Total amount of related substance (%)” value [3, 5] was 1.10%. The pH [3, 5] was 3.05, the Appearance [3, 6] was “Yellow” and the “Content in relation to Initial amount (%)” value [3, 6] was 100.0%. For the same compound, the “Content in relation to Nominal amount (%)” value [3, 6] was 95.3%, the “Total amount of related substance (%)” value [3, 6] was 0.92% and the pH [3, 6] was 2.89. For the same compound, the Appearance [3, 7] was “Yellow”, the “Content in relation to Initial amount (%)” value [3, 7] was 99.4% and the “Content in relation to Nominal amount (%)” value [3, 7] was 96.0%. For the same compound, the “Total amount of related substance (%)” value [3, 7] was 0.96%, the pH [3, 7] was 3.81 and the Appearance [3, 8] was “Yellow”. The “Content in relation to Initial amount (%)” value [3, 8] was 99.7%, the “Content in relation to Nominal amount (%)” value [3, 8] was 96.2% and the “Total amount of related substance (%)” value [3, 8] was 1.17%. For the same compound, the pH [3, 8] was 3.86, the Appearance [3, 9] was “Yellow” and the “Content in relation to Initial amount (%)” value [3, 9] was 100.0%. The “Content in relation to Nominal amount (%)” value [3, 9] was 96.5%, the “Total amount of related substance (%)” value [3, 9] was 0.93% and the pH [3, 9] was 3.73. The Appearance [3, 10] was “Yellow”, the “Content in relation to Initial amount (%)” value [3, 10] was 97.8% and the “Content in relation to Nominal amount (%)” value [3, 10] was 91.1%. The “Total amount of related substance (%)” value [3, 10] was 1.13%, the pH [3, 10] was 4.51 and the Appearance [3, 11] was “Yellow”. The “Content in relation to Initial amount (%)” value [3, 11] was 100.5%, the “Content in relation to Nominal amount (%)” value [3, 11] was 93.5% and the “Total amount of related substance (%)” value [3, 11] was 1.31%. For the same compound, the pH [3, 11] was 4.53, the Appearance [3, 12] was “Yellow” and the “Content in relation to Initial amount (%)” value [3, 12] was 100.0%. The “Content in relation to Nominal amount (%)” value [3, 12] was 93.1%, the “Total amount of related substance (%)” value [3, 12] was 0.93% and the pH [3, 12] was 4.47.
